In patent EP4631959A2, “NOVEL MINIGASTRIN-DERIVED CHOLECYSTOKININ 2 RECEPTOR BINDING MOLECULES FOR IMAGING AND TARGETED RADIOTHERAPY” (priority 2022, dated 2024):
Read-outs that look alike come from different tables or passages of the source. Starred links: 1 amine or outer side, 2 acyl side, 3 side chain; linkers in the order of their positions; H or OH if unused. Non-standard residues stand in square brackets, D forms with d. Residues, ends and D or L forms follow the SMILES beside them. *: point of attachment. DOTAGA = O=C(O)CN1CCN(CC(=O)O)CCN(C(CCC(=O)*)C(=O)O)CCN(CC(=O)O)CC1; X2 = O=C(O)CN1CCN(CC(=O)O)CCN([C@H](CCC(=O)*)C(=O)O)CCN(CC(=O)O)CC1; Benzoyl(4-SiFtBu2) = CC(C)(C)[Si](F)(c1ccc(C(=O)*)cc1)C(C)(C)C; DOTA = O=C(O)CN1CCN(CC(=O)O)CCN(CC(=O)*)CCN(CC(=O)O)CC1; X4 = CC(C)(C)[Si](O)(c1ccc(C(=O)*)cc1)C(C)(C)C; d(γGlu) = O=C(O)[C@@H](CCC(=O)[*:2])N[*:1]; 1Nal = N[C@@H](Cc1cccc2ccccc12)C(=O)O; Hyp = O=C(O)[C@@H]1C[C@@H](O)CN1; NMeNle = CCCC[C@H](NC)C(=O)O; PEG4 = NCCOCCOCCOCCOCCC(=O)O; Nle = CCCC[C@H](N)C(=O)O; dDap = NC[C@@H](N)C(=O)O

Key:
CCK-2R = target: T1, CCK-2R (Rattus norvegicus, UniProt P30553); assay: Determination of IC50: CCK-2R affinity on AR4-2J cells, competition with [^177Lu]Lu-DOTA-PP-F11N; type: binding
T1 construct: The CCK-2R expressing rat pancreatic tumor cells AR4-2J; host or cells: AR4-2J rat pancreatic tumor cells
T1 sequence (P30553 1-452): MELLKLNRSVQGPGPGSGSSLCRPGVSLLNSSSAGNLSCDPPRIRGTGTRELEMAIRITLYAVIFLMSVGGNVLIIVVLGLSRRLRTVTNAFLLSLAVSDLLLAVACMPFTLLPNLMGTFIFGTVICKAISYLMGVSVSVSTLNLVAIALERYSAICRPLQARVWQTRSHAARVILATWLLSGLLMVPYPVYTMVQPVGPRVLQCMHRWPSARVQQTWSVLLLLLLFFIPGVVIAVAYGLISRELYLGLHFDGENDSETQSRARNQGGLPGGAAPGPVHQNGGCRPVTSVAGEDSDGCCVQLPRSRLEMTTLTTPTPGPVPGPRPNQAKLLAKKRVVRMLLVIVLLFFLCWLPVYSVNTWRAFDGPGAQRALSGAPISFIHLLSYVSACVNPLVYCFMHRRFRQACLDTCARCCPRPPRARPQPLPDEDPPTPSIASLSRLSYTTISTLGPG
Procedure, shortened: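 Competitive displacement of 0.3 pmol/well [177Lu]Lu-DOTA-PP-F11N by compounds (10^-10 to 10^-4 M) on AR4-2J cells in BSA-supplemented medium, 3 h at 37 °C. Free label was collected from medium plus PBS rinse, and cell-bound label was recovered with 1 M NaOH, both measured by γ-counter. Each IC50 was determined twice, in triplicate.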

[1] = n-Octanol-PBS distribution coefficient (logD7.4); type: physicochemical; conditions: pH = 7.4, ^177Lu-labeled
Description: Approximately 1 MBq of the labeled tracer was dissolved in 1 mL of a 1/1 mixture (v/v) of phosphate buffered saline (PBS, pH = 7.4) and n-octanol in an Eppendorf tube (1.5 mL). After vigorous mixing of the suspension for 3 min at rt, the vial was centrifuged at 9,000 rpm for 5 min (Biofuge 15, Heraeus Sepatech, Osterode, Germany) and 200 µL aliquots of both layers were measured in a γ-counter. The experiment was repeated at least five times.

[2] = read-out: IC50 [nM] (n = 3), ^natLu-labeled; AR4-2J cells; ^natLu-labeled
[3] = AR4-2J cells; ^natLu-labeled; read-out: IC50 [nM] (n = 3), ^natLu-labeled

| SMILES | IC50 (CCK-2R; [2]) [nM] | logD7.4 (n ≥ 5), ^177Lu-labeled [1] | IC50 (CCK-2R; [3]) [nM] |
| --- | --- | --- | --- |
| CCCC[C@@H](C(=O)N[C@@H](CC(=O)O)C(=O)N[C@@H](Cc1cccc2ccccc12)C(N)=O)N(C)C(=O)[C@H](Cc1c[nH]c2ccccc12)NC(=O)CCOCCOCCOCCOCCNC(=O)CC[C@@H](NC(=O)[C@@H]1C[C@@H](O)CN1C(=O)[C@@H]1C[C@@H](O)CN1C(=O)[C@@H]1C[C@@H](O)CN1C(=O)[C@@H]1C[C@@H](O)CN1C(=O)[C@@H]1C[C@@H](O)CN1C(=O)[C@@H]1C[C@@H](O)CN1C(=O)CC[C@@H](NC(=O)[C@@H](CNC(=O)c1ccc([Si](O)(C(C)(C)C)C(C)(C)C)cc1)NC(=O)CN1CCN(CC(=O)O)CCN(CC(=O)O)CCN(CC(=O)O)CC1)C(=O)O)C(=O)O [DOTA-rhCCK-84.2, DOTA-dap(SiOH)-γ-glu-(Hyp)6-γ-glu-(PEG)3-Trp-(N-Me)Nle-Asp-1-Nal-NH2] ({DOTA}-[dDap](X4)[d(γGlu)][Hyp][Hyp][Hyp][Hyp][Hyp][Hyp][d(γGlu)][PEG4]W[NMeNle]D[1Nal]-NH2) | 13 ± 0.8 | −2.21 ± 0.08 |  |
| CCCC[C@H](NC(=O)[C@H](Cc1c[nH]c2ccccc12)NC(=O)CNC(=O)[C@H](Cc1ccc(O)cc1)NC(=O)[C@H](C)NC(=O)[C@@H](CNC(=O)c1ccc([Si](F)(C(C)(C)C)C(C)(C)C)cc1)NC(=O)[C@@H](CCC(=O)O)NC(=O)[C@@H](CCC(=O)O)NC(=O)[C@@H](CCC(=O)O)NC(=O)[C@@H](CCC(=O)O)NC(=O)[C@@H](CCC(=O)O)NC(=O)[C@@H](CCC(=O)O)NC(=O)CCC(C(=O)O)N1CCN(CC(=O)O)CCN(CC(=O)O)CCN(CC(=O)O)CC1)C(=O)N[C@@H](CC(=O)O)C(=O)N[C@@H](Cc1ccccc1)C(N)=O (some centres unmarked) [DOTAGA-MG-SiFA-5, DOTAGA-glu-[dap(SiFA)^6]F11N] ({DOTAGA}-[dE][dE][dE][dE][dE][dE][dDap](Benzoyl(4-SiFtBu2))AYGW[Nle]DF-NH2) | 629 ± 48 | −1.71 ± 0.10 |  |
| CCCC[C@H](NC(=O)[C@H](Cc1c[nH]c2ccccc12)NC(=O)CNC(=O)[C@H](Cc1ccc(O)cc1)NC(=O)[C@H](C)NC(=O)[C@@H](CCC(=O)O)NC(=O)[C@@H](CNC(=O)c1ccc([Si](F)(C(C)(C)C)C(C)(C)C)cc1)NC(=O)[C@@H](CCC(=O)O)NC(=O)[C@@H](CCC(=O)O)NC(=O)[C@@H](CCC(=O)O)NC(=O)[C@@H](CCC(=O)O)NC(=O)[C@@H](CCC(=O)O)NC(=O)CCC(C(=O)O)N1CCN(CC(=O)O)CCN(CC(=O)O)CCN(CC(=O)O)CC1)C(=O)N[C@@H](CC(=O)O)C(=O)N[C@@H](Cc1ccccc1)C(N)=O (some centres unmarked) [DOTAGA-MG-SiFA-6, DOTAGA-glu-[dap(SiFA)^5]F11N] ({DOTAGA}-[dE][dE][dE][dE][dE][dDap](Benzoyl(4-SiFtBu2))[dE]AYGW[Nle]DF-NH2) | 155 ± 18 | −1.95 ± 0.09 |  |
| CCCC[C@H](NC(=O)[C@H](Cc1c[nH]c2ccccc12)NC(=O)CNC(=O)[C@H](Cc1ccc(O)cc1)NC(=O)[C@H](C)NC(=O)[C@@H](CCC(=O)O)NC(=O)[C@@H](CCC(=O)O)NC(=O)[C@@H](CNC(=O)c1ccc([Si](F)(C(C)(C)C)C(C)(C)C)cc1)NC(=O)[C@@H](CCC(=O)O)NC(=O)[C@@H](CCC(=O)O)NC(=O)[C@@H](CCC(=O)O)NC(=O)[C@@H](CCC(=O)O)NC(=O)CCC(C(=O)O)N1CCN(CC(=O)O)CCN(CC(=O)O)CCN(CC(=O)O)CC1)C(=O)N[C@@H](CC(=O)O)C(=O)N[C@@H](Cc1ccccc1)C(N)=O (some centres unmarked) [DOTAGA-MG-SiFA-7, DOTAGA-glu-[dap(SiFA)^4]F11N] ({DOTAGA}-[dE][dE][dE][dE][dDap](Benzoyl(4-SiFtBu2))[dE][dE]AYGW[Nle]DF-NH2) | 156 ± 4 | −2.03 ± 0.10 |  |
| CCCC[C@H](NC(=O)[C@H](Cc1c[nH]c2ccccc12)NC(=O)CNC(=O)[C@H](Cc1ccc(O)cc1)NC(=O)[C@H](C)NC(=O)[C@@H](CCC(=O)O)NC(=O)[C@@H](CCC(=O)O)NC(=O)[C@@H](CCC(=O)O)NC(=O)[C@@H](CNC(=O)c1ccc([Si](F)(C(C)(C)C)C(C)(C)C)cc1)NC(=O)[C@@H](CCC(=O)O)NC(=O)[C@@H](CCC(=O)O)NC(=O)[C@@H](CCC(=O)O)NC(=O)CCC(C(=O)O)N1CCN(CC(=O)O)CCN(CC(=O)O)CCN(CC(=O)O)CC1)C(=O)N[C@@H](CC(=O)O)C(=O)N[C@@H](Cc1ccccc1)C(N)=O (some centres unmarked) [DOTAGA-MG-SiFA-8, DOTAGA-glu-[dap(SiFA)^3]F11N] ({DOTAGA}-[dE][dE][dE][dDap](Benzoyl(4-SiFtBu2))[dE][dE][dE]AYGW[Nle]DF-NH2) | 185 ± 14 | −2.19 ± 0.08 |  |
| CCCC[C@H](NC(=O)[C@H](Cc1c[nH]c2ccccc12)NC(=O)CNC(=O)[C@H](Cc1ccc(O)cc1)NC(=O)[C@H](C)NC(=O)[C@@H](CCC(=O)O)NC(=O)[C@@H](CCC(=O)O)NC(=O)[C@@H](CCC(=O)O)NC(=O)[C@@H](CCC(=O)O)NC(=O)[C@@H](CNC(=O)c1ccc([Si](F)(C(C)(C)C)C(C)(C)C)cc1)NC(=O)[C@@H](CCC(=O)O)NC(=O)[C@@H](CCC(=O)O)NC(=O)CCC(C(=O)O)N1CCN(CC(=O)O)CCN(CC(=O)O)CCN(CC(=O)O)CC1)C(=O)N[C@@H](CC(=O)O)C(=O)N[C@@H](Cc1ccccc1)C(N)=O (some centres unmarked) [DOTAGA-MG-SiFA-9, DOTAGA-glu-[dap(SiFA)^2]F11N] ({DOTAGA}-[dE][dE][dDap](Benzoyl(4-SiFtBu2))[dE][dE][dE][dE]AYGW[Nle]DF-NH2) | 90 ± 2.3 | −2.67 ± 0.05 |  |
| CCCC[C@H](NC(=O)[C@H](Cc1c[nH]c2ccccc12)NC(=O)CNC(=O)[C@H](Cc1ccc(O)cc1)NC(=O)[C@H](C)NC(=O)[C@@H](CCC(=O)O)NC(=O)[C@@H](CCC(=O)O)NC(=O)[C@@H](CCC(=O)O)NC(=O)[C@@H](CCC(=O)O)NC(=O)[C@@H](CCC(=O)O)NC(=O)[C@@H](CNC(=O)c1ccc([Si](F)(C(C)(C)C)C(C)(C)C)cc1)NC(=O)[C@@H](CCC(=O)O)NC(=O)CCC(C(=O)O)N1CCN(CC(=O)O)CCN(CC(=O)O)CCN(CC(=O)O)CC1)C(=O)N[C@@H](CC(=O)O)C(=O)N[C@@H](Cc1ccccc1)C(N)=O (some centres unmarked) [DOTAGA-MG-SiFA-10, DOTAGA-glu-[dap(SiFA)^1]F11N] ({DOTAGA}-[dE][dDap](Benzoyl(4-SiFtBu2))[dE][dE][dE][dE][dE]AYGW[Nle]DF-NH2) | 56.8 ± 6.4 | −2.22 ± 0.08 |  |
| CCCC[C@H](NC(=O)[C@H](Cc1c[nH]c2ccccc12)NC(=O)CNC(=O)[C@H](Cc1ccc(O)cc1)NC(=O)[C@H](C)NC(=O)[C@@H](CCC(=O)O)NC(=O)[C@@H](CCC(=O)O)NC(=O)[C@@H](CCC(=O)O)NC(=O)[C@@H](CCC(=O)O)NC(=O)[C@@H](CCC(=O)O)NC(=O)[C@@H](CCC(=O)O)NC(=O)[C@@H](CNC(=O)c1ccc([Si](F)(C(C)(C)C)C(C)(C)C)cc1)NC(=O)CCC(C(=O)O)N1CCN(CC(=O)O)CCN(CC(=O)O)CCN(CC(=O)O)CC1)C(=O)N[C@@H](CC(=O)O)C(=O)N[C@@H](Cc1ccccc1)C(N)=O (some centres unmarked) [DOTAGA-MG-SiFA-11, DOTAGA-dap(SiFA)-F11N] ({DOTAGA}-[dDap](Benzoyl(4-SiFtBu2))[dE][dE][dE][dE][dE][dE]AYGW[Nle]DF-NH2) | 75.7 ± 10.7 | −2.63 ± 0.08 |  |
| CCCC[C@H](NC(=O)[C@H](Cc1c[nH]c2ccccc12)NC(=O)CNC(=O)[C@H](Cc1ccc(O)cc1)NC(=O)[C@H](C)NC(=O)[C@@H](CNC(=O)c1ccc([Si](F)(C(C)(C)C)C(C)(C)C)cc1)NC(=O)CC[C@@H](NC(=O)CC[C@@H](NC(=O)CC[C@@H](NC(=O)CC[C@@H](NC(=O)CC[C@@H](NC(=O)CC[C@@H](NC(=O)CC[C@H](C(=O)O)N1CCN(CC(=O)O)CCN(CC(=O)O)CCN(CC(=O)O)CC1)C(=O)O)C(=O)O)C(=O)O)C(=O)O)C(=O)O)C(=O)O)C(=O)N[C@@H](CC(=O)O)C(=O)N[C@@H](Cc1ccccc1)C(N)=O [DOTAGA-MG-SiFA-13, DOTAGA-γ-glu-[dap(SiFA)^6]γ-F11N] ({X2-d(γGlu)-d(γGlu)-d(γGlu)-d(γGlu)-d(γGlu)-d(γGlu)}-[dDap](Benzoyl(4-SiFtBu2))AYGW[Nle]DF-NH2) |  | −2.15 ± 0.08 | 863 ± 147 |
| CCCC[C@H](NC(=O)[C@H](Cc1c[nH]c2ccccc12)NC(=O)CNC(=O)[C@H](Cc1ccc(O)cc1)NC(=O)[C@H](C)NC(=O)CC[C@@H](NC(=O)[C@@H](CNC(=O)c1ccc([Si](F)(C(C)(C)C)C(C)(C)C)cc1)NC(=O)CC[C@@H](NC(=O)CC[C@@H](NC(=O)CC[C@@H](NC(=O)CC[C@@H](NC(=O)CC[C@@H](NC(=O)CC[C@H](C(=O)O)N1CCN(CC(=O)O)CCN(CC(=O)O)CCN(CC(=O)O)CC1)C(=O)O)C(=O)O)C(=O)O)C(=O)O)C(=O)O)C(=O)O)C(=O)N[C@@H](CC(=O)O)C(=O)N[C@@H](Cc1ccccc1)C(N)=O [DOTAGA-MG-SiFA-14, DOTAGA-γ-glu-[dap(SiFA)^5]γ-F11N] ({X2-d(γGlu)-d(γGlu)-d(γGlu)-d(γGlu)-d(γGlu)}-[dDap](Benzoyl(4-SiFtBu2))[d(γGlu)]AYGW[Nle]DF-NH2) |  | −2.23 ± 0.07 | 111 ± 13 |
